The values that follow come from patent US20240217990A1 (Gilead Sciences, Inc., priority 2021, published 2024).

The target of one test is T1, TLR7 (Homo sapiens, UniProt Q9NYK1).
T1 construct: Human peripheral blood mononuclear cells (PBMCs) consist of lymphocytes, monocytes and dendritic cells that express TLR7, TLR8 and TLR9; endogenous in cells; host or cells: cryopreserved human PBMCs from healthy donors
T1 sequence (Q9NYK1 27-1049): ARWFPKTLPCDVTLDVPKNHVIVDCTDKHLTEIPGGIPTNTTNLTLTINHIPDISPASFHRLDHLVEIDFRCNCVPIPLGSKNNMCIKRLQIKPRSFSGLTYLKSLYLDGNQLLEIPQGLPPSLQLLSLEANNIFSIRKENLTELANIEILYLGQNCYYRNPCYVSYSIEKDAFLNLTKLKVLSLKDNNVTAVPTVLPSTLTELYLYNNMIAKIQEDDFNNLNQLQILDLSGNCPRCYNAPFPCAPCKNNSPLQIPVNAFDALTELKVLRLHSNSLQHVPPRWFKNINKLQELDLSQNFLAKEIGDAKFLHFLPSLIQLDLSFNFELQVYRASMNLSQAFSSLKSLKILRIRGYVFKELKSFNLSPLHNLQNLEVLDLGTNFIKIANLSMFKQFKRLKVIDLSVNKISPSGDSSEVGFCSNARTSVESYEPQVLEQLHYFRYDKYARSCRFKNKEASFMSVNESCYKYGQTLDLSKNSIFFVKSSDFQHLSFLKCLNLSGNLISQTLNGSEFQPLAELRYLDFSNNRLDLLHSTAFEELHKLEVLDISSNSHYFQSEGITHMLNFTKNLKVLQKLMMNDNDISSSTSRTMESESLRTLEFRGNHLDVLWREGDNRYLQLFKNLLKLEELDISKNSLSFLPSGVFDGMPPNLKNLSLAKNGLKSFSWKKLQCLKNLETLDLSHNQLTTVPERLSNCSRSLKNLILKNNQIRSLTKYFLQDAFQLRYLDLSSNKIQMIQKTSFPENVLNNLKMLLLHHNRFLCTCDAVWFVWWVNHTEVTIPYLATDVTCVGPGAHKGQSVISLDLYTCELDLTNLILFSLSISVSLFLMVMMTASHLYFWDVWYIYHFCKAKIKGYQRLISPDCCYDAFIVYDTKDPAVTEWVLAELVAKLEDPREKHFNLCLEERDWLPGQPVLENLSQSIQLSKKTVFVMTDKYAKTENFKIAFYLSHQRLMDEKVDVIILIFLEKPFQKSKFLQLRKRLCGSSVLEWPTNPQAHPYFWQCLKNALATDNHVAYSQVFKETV
The test is described as follows: TLR7 human PBMC cell-based assay (antagonist, GS-986 stimulated cytokine release). The conditions noted are these: human PBMCs; TLR7 agonist GS-986 400 nM, 6 hours; cytokines (IL-6 and IFNα) in supernatant; read-out: TLR-7 EC50. An outline of the steps:
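EC50 derived by sigmoidal fitting of IL-6 and IFNα levels, quantified by electrochemiluminescence in supernatants of human PBMCs given 400 nM GS-986 for 6 h. Cells (100,000/well in RPMI-1640, 10% FBS) had received test antagonist 1 h beforehand, 10 doses in quadruplicate, at 37 °C.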

For the next test, the target named is T2, TLR8 (Homo sapiens, UniProt Q9NR97).
T2 construct: Human peripheral blood mononuclear cells (PBMCs) consist of lymphocytes, monocytes and dendritic cells that express TLR7, TLR8 and TLR9; endogenous in cells; host or cells: cryopreserved human PBMCs from healthy donors
T2 sequence (Q9NR97 27-1041): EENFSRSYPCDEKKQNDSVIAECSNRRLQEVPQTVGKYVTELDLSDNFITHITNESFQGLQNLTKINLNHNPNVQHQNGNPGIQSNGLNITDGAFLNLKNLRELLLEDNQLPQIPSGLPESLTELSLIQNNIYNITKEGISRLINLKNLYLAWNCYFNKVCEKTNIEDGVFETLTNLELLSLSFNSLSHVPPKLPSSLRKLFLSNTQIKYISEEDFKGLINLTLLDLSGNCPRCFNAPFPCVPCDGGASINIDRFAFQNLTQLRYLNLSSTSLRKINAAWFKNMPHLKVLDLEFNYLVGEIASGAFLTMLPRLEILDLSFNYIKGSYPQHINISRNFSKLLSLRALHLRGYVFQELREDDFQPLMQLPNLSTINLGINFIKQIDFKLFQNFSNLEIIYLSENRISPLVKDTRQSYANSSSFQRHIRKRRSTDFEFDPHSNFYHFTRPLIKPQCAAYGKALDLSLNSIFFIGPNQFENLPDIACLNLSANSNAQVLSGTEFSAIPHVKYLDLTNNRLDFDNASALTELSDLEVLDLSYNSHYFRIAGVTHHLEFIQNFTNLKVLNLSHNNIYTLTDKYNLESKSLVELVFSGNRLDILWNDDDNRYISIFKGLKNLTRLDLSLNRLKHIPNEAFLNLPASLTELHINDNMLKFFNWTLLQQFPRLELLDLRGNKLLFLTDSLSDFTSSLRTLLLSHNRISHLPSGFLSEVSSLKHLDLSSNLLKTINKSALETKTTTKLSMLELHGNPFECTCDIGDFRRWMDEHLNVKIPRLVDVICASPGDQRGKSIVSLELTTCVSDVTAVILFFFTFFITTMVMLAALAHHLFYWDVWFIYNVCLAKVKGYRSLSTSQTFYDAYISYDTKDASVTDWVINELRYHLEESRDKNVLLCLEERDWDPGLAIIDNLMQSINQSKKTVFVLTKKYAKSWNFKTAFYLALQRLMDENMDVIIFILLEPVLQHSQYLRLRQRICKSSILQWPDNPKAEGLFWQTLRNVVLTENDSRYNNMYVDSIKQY
Nature of the test: TLR8 human PBMC cell-based assay (antagonist, Compound A stimulated cytokine release). The conditions noted are these: human PBMCs; TLR8 agonist Compound A 800 nM, 6 hours; cytokines (TNFa and IL 12p40) in supernatant; read-out: TLR-8 EC50. The procedure, abridged:
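Cryopreserved donor PBMCs (100,000/well, RPMI + 10% FBS) were preincubated 1 h with antagonist (10-point dose response, quadruplicate), then stimulated with Compound A (800 nM final) for 6 h at 37 °C. TNFa and IL-12p40 in supernatants were measured by electrochemiluminescence; sigmoidal fits gave EC50.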

As to `Cc1cc(-c2[nH]c3cc(C(=O)N(C)[C@@H]4CNC[C@H](C(F)(F)F)C4)sc3c2C(C)C)cn2ncnc12` [Example 276], the concentration for a half-maximal effect (EC50) at TLR7 came out at 2.7 nM; at TLR8 it was 16.3 nM.
Taken in the same sequence, the figures for `Cc1cc(-c2[nH]c3cc(C(=O)C4CCNCC4)sc3c2C(C)C)cn2ncnc12` [Example 277, (6-isopropyl-5-(8-methyl-[1,2,4]triazolo[1,5-a]pyridin-6-yl)-4H-thieno[3,2-b]pyrrol-2-yl)(piperidin-4-yl)methanone] were 0.4 nM and 6.1 nM.
Taken in the same sequence, the figures for `Cc1c(-c2[nH]c3cc(C4CCN(CC(N)=O)CC4)sc3c2C(C)C)cn2ncnc2c1C` [Example 279] were 2.78 nM and 0.78 nM.
In the case of `Cc1cc(-c2[nH]c3cc(C4CCC5(CCN(CC(N)=O)C5)C4)sc3c2C(C)C)cn2ncnc12` (centres unmarked) [Example 280], the EC50 is 2.89 nM on TLR7 and 7.51 nM on TLR8.
Taken in the same sequence, the figures for `Cc1cc(-c2[nH]c3cc(C4CCC5CNCCC5C4)sc3c2C(C)C)cn2ncnc12` (centres unmarked) [Example 281] were 0.87 nM and 4.48 nM.
Take `Cc1cc(-c2[nH]c3cc(C4CC5CCC4CN5)sc3c2C(C)C)cn2ncnc12` (centres unmarked) [Example 282]: the results for the concentration giving a half-maximal response (EC50) at TLR7 and at TLR8 were 1.32 nM and 11.7 nM, respectively.
Taken in the same sequence, the figures for `Cc1nc2c(C)cc(-c3[nH]c4cc(C5CCN(CC(N)=O)CC5)sc4c3C(C)C)cn2n1` [Example 283] were 1.37 nM and 3.47 nM.
Taken in the same sequence, the figures for `Cc1cc(-c2[nH]c3cc(C4CCC5(CC4)CN(C(=O)[C@H]4COCCN4)C5)sc3c2C(C)C)cn2ncnc12` [Example 284] were 0.23 nM and 14.2 nM.
As to `Cc1cc(-c2[nH]c3cc(C4CCC5(CC4)CN(C(=O)[C@@H]4COCCN4)C5)sc3c2C(C)C)cn2ncnc12` [Example 285], the EC50 worked out at 0.34 nM at TLR7 and 15.2 nM on TLR8.
Taken in the same sequence, the figures for `Cc1c(-c2[nH]c3cc(C4CCN(CC(N)=O)CC4)sc3c2C(C)C)ccc2nn(C)c(=O)n12` [Example 286] were above 1000 nM and 172 nM.
Taken in the same sequence, the figures for `Cc1cc(-c2[nH]c3cc(C4CCC5CN(CC(N)=O)CCC5C4)sc3c2C(C)C)cn2ncnc12` (centres unmarked) [Example 287] were 0.56 nM and 5.31 nM.
Consider `Cc1cc(-c2[nH]c3cc(C4CC5CCC4CN5CC(N)=O)sc3c2C(C)C)cn2ncnc12` (centres unmarked) [Example 288], for which the figures for the EC50 at TLR7 and on TLR8 were 0.76 nM and 6.45 nM, respectively.
Taken in the same sequence, the figures for `Cc1cc(-c2[nH]c3cc(C4CC5CN(CC(N)=O)CC5C4)sc3c2C(C)C)cn2ncnc12` (centres unmarked) [Example 289] were 0.19 nM and 5.93 nM.
Taken in the same sequence, the figures for `Cc1cc(-c2[nH]c3cc(C4CCC5(CC4)CCN(CC(N)=O)CC5)sc3c2C(C)C)cn2ncnc12` [Example 290] were 0.43 nM and 17.9 nM.
Taken in the same sequence, the figures for `Cc1cc(-c2[nH]c3cc(C4CCN(C(=O)[C@@H]5COCCN5)CC4)sc3c2C(C)C)cn2ncnc12` [Example 291] were 0.37 nM and 6.11 nM.
As to `Cc1cc(-c2[nH]c3cc(C4CCN(C(=O)[C@H]5COCCN5)CC4)sc3c2C(C)C)cn2ncnc12` [Example 292], the concentration for a half-maximal effect (EC50) on TLR7 was determined as 0.3 nM; at TLR8 it was 7.93 nM.
The like results for `Cc1cc(-c2[nH]c3cc(C4CCNCC4(C)C)sc3c2C(C)C)cn2ncnc12` (centres unmarked) [Example 293] were, in that order, 0.82 nM and 5.56 nM.
Taken in the same sequence, the figures for `Cc1cc(-c2[nH]c3cc(C4CC(C)(C)NC(C)(C)C4)sc3c2C(C)C)cn2ncnc12` [Example 294] were 49.5 nM and 19.5 nM.
In the case of `Cc1cc(-c2[nH]c3cc(C4CCNC5(CCC5)C4)sc3c2C(C)C)cn2ncnc12` (centres unmarked) [Example 296], the concentration for a half-maximal effect (EC50) amounted to 3.76 nM at TLR7 and 8.2 nM on TLR8.
The like results for `Cc1cc(-c2[nH]c3cc(C4CC5CCCC(C4)N5)sc3c2C(C)C)cn2ncnc12` (centres unmarked) [Example 297] were, in that order, 2.74 nM and 19.5 nM.
Taken in the same sequence, the figures for `Cc1cc(-c2[nH]c3cc(C4CCN(CC(N)=O)CC4(C)C)sc3c2C(C)C)cn2ncnc12` (centres unmarked) [Example 298] were 4.02 nM and 17.7 nM.
Taken in the same sequence, the figures for `Cc1cc(-c2[nH]c3cc(C4CC5CCC(C4)N5CC(N)=O)sc3c2C(C)C)cn2ncnc12` (centres unmarked) [Example 299] were 0.56 nM and 10.4 nM.
With `Cc1cc(-c2[nH]c3cc(C4CCC(C(=O)N5CCNCC5)CC4)sc3c2C(C)C)cn2ncnc12` (centres unmarked) [Example 300], the concentration giving a half-maximal response (EC50) worked out at 0.31 nM at TLR7 and 11.2 nM at TLR8.
Taken in the same sequence, the figures for `Cc1cc(-c2[nH]c3cc(C4CCN(CC(N)=O)C5(CCC5)C4)sc3c2C(C)C)cn2ncnc12` (centres unmarked) [Example 301] were 52 nM and 217 nM.
Taken in the same sequence, the figures for `Cc1cc(-c2[nH]c3cc(C4CC5CCCC(C4)N5CC(N)=O)sc3c2C(C)C)cn2ncnc12` (centres unmarked) [Example 302] were 11.9 nM and 54 nM.
Taken in the same sequence, the figures for `Cc1cc(-c2[nH]c3cc(C4CC4C(=O)N4CCNCC4)sc3c2C(C)C)cn2ncnc12` (centres unmarked) [Example 303] were 0.44 nM and 3.52 nM.
As for `Cc1cc(-c2[nH]c3cc(C4CC5(CCN(CC(N)=O)CC5)C4)sc3c2C(C)C)cn2ncnc12` [Example 304], the 50% effective concentration (EC50) at TLR7 amounted to 0.5 nM; at TLR8, 2.06 nM.
Taken in the same sequence, the figures for `CC(C)c1c(-c2cc(C(F)(F)F)c3ncnn3c2)[nH]c2cc(C(=O)N3CCNCC3)sc12` [Example 305] were 2.36 nM and 5.14 nM.
For the compound `Cc1cc(-c2[nH]c3cc(C4CC4C(=O)N4CCN(CCO)CC4)sc3c2C(C)C)cn2ncnc12` (centres unmarked) [Example 306], the concentration for a half-maximal effect (EC50) on TLR7 was found to be 22.7 nM; at TLR8, 25 nM.
Consider `Cc1cc(-c2[nH]c3cc([C@@H]4C[C@H]5CC[C@@H](C4)N5)sc3c2C(C)C)cn2ncnc12` [Example 307, 2-((1R,3s,5S)-8-azabicyclo[3.2.1]octan-3-yl)-6-isopropyl-5-(8-methyl-[1,2,4]triazolo[1,5-a]pyridin-6-yl)-4H-thieno[3,2-b]pyrrole], for which the figures for the EC50 at TLR7 and at TLR8 were 0.09 nM and 7.49 nM, respectively.
Taken in the same sequence, the figures for `Cc1cc(-c2[nH]c3cc(C4CC5(CCNCC5)C4)sc3c2C(C)C)cn2ncnc12` [Example 308] were 0.28 nM and 3.46 nM.

What is called EC50 is the concentration that produces a half-maximal response.
